# Measured values reported in patent US7534801B2, “Piperidinylchromen-6-ylsulfonamide compounds as 5-hydroxytryptamine-6 ligands” (Wyeth, priority 2003, dated 2009).
# Counter-ions that a name gives are not always drawn.
# What was measured:
# [1] = target: human cloned 5-HT6 receptors (Homo sapiens, UniProt P50406)
# Chain of human cloned 5-HT6 receptors (P50406 whole entry): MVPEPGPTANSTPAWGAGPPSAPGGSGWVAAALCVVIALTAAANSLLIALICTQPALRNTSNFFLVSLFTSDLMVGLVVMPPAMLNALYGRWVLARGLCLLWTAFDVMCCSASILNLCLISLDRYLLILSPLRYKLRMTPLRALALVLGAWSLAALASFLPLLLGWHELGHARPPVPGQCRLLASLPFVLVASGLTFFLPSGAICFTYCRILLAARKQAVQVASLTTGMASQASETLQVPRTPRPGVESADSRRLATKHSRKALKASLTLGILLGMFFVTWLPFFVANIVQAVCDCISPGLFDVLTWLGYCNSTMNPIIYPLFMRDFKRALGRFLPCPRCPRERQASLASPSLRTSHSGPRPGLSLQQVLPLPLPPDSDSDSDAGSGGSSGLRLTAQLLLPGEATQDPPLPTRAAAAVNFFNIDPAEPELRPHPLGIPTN
Ki [1] [nM],melting point [°C],SMILES
1,–,"O=S(=O)(Nc1ccc2c(c1)C(C1CCNCC1)=CCO2)c1ccccc1 [Example 14, N(4-Piperidin-4-yl-2H-chromen-6-yl)benzenesulfonamide Hemihydrate]"
2,> 240,"O=S(=O)(Nc1ccc2c(c1)C(C1CCNCC1)=CCO2)c1ccc(Cl)cc1 [Example 15, 4-chloro-N-(4-piperidin-4-yl-2H-chromen-6-yl)benzenesulfonamide]"
2,–,"O=S(=O)(Nc1ccc2c(c1)C(C1CCNCC1)=CCO2)c1cccc2ccccc12 [Example 16, N-(4-piperidin-4-yl-2H-chromen-6-yl)naphthalene-1-sulfonamide]"
12,–,"O=S(=O)(Nc1ccc2c(c1)C(C1CCNCC1)CCO2)c1ccccc1 (centres unmarked) [Example 23, N(4-Piperidin-4-dihydro-2H-chromen-6-yl)benzenesulfonamid Hydrochloride]"
